In one series the test system is T. gondii. The series can be described thus: T. gondii cell proliferation. In kind it is cell-based, Toxoplasma gondii.
The subject of a further series is HL-60 (neutrophil) cells. The series can be described thus: Human cell growth inhibition assay, HL-60. The note with it: concentrations up to 10 μM.
The test system of series [1] is CRL-8155 (lymphocytic) cells. The series can be described thus: Human cell growth inhibition assay, CRL-8155. The note with it: concentrations up to 10 μM.
The subject of a further series is human kinases. The series is classed as biochemical.
Setting [2] is: generally observed, human kinase panel of Table 4.

Like-named read-outs stand apart in the source and are kept apart here.

Take `CC(C)(C)n1ncc2c(N)ncnc21.Cl` [Compound 1b]: the “block of T. gondii cell invasion/proliferation” value in the series with T. gondii is “do not block T. gondii cell invasion/proliferation”.
On to `Cl.Nc1ncnc2c1cnn2CC1CCNCC1` [Compound 1n], for which, in the series with T. gondii, the “block of T. gondii cell invasion/proliferation” value was “do not block T. gondii cell invasion/proliferation”.
Consider `COc1ccc2cc(-c3nn(C(C)C)c4ncnc(N)c34)ccc2c1.Cl` [Compound 14a], for which, in the series with HL-60 (neutrophil) cells, the “inhibition of cell growth, HL-60” value is “no inhibition of cell growth”. In addition, the “inhibition of cell growth, CRL-8155” value in series [1] is listed as “no inhibition of cell growth”.
Consider `COc1ccc2cc(-c3nn(CC4CCNCC4)c4ncnc(N)c34)ccc2c1.Cl` [Compound 14n], for which the “inhibition of cell growth, HL-60” value in the series on HL-60 (neutrophil) cells is “no inhibition of cell growth”. For the same compound, the “differences between IC50 values for TgCDPK1 over human kinases” value (shortened to “differences between IC50 values”) in the series on human kinases (setting [2]) is reported as over 1000 fold. For the same compound, in series [1], the “inhibition of cell growth, CRL-8155” value is “no inhibition of cell growth”.
In the case of `CCOc1ccc2cc(-c3nn(C4CCN(C)CC4)c4ncnc(N)c34)ccc2c1.Cl` [Compound 15h], the “inhibition of cell growth, HL-60” value with HL-60 (neutrophil) cells is listed as “no inhibition of cell growth”. Further, the “differences between IC50 values” value in the series on human kinases (setting [2]) was over 1000 fold. Besides, in series [1], the “inhibition of cell growth, CRL-8155” value is listed as “no inhibition of cell growth”.
As for `CCOc1ccc2cc(-c3nn(CC4CCNCC4)c4ncnc(N)c34)ccc2c1.Cl` [Compound 15n], the “inhibition of cell growth, HL-60” value with HL-60 (neutrophil) cells is “no inhibition of cell growth”. In the series with human kinases, the “differences between IC50 values” value is reported as over 1000 fold. Moreover, the “inhibition of cell growth, CRL-8155” value in series [1] is “no inhibition of cell growth”.
In the case of `CCOc1ccc2cc(-c3nn(CC4CCN(C)CC4)c4ncnc(N)c34)ccc2c1.Cl` [Compound 15o], the “differences between IC50 values” value in the series with human kinases (setting [2]) is listed as over 1000 fold.
`CCOc1ccc2cc(-c3nn(CC4CCNCC4)c4ncnc(N)c34)ccc2n1.Cl` [Compound 16n]: the “inhibition of cell growth, HL-60” value with HL-60 (neutrophil) cells was “no inhibition of cell growth”. In addition, in the series with human kinases (setting [2]), the “differences between IC50 values” value is given as over 1000 fold. The “inhibition of cell growth, CRL-8155” value in series [1] is on record as “no inhibition of cell growth”.

The values above are taken from paper PMC3306180 (Journal of Medicinal Chemistry, 2012).
